Data on 19 compounds can be found in patent EP1137632B1, “THIOUREA INHIBITORS OF HERPES VIRUSES” (Wyeth, priority 1998, dated 2000).

Experiment [1] relates to HCMV recombinant mutant virus. Briefly: microbe, parasite or virus in culture. The experiment is classed as cell-based, human cytomegalovirus. The conditions noted are these: Human betaherpesvirus 5, read-out: IC50 (ug/ml) HCMV. An outline of the steps: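 Human foreskin fibroblasts were infected with a recombinant HCMV carrying a beta-glucuronidase gene under a viral promoter, in the presence of compound. At 96 h post-infection, lysate beta-glucuronidase activity was read colorimetrically or fluorometrically as a replication marker. IC50 came from the compound dose range.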

A further experiment relates to HSV-1. In words: HSV antiviral (ELISA) assay in Vero cells. The conditions noted are these: read-out: IC50 (ug/ml) HSV. It counts as cell-based, herpes simplex virus type 1. An outline of the steps:
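Vero cells in DMEM/2% FBS treated with compound 30 min before HSV-1 infection (MOI 0.006), ~24 h at 37 °C. Viral glycoprotein D measured by cell ELISA with β-galactosidase-linked secondary and fluorogenic methylumbelliferyl galactoside (ex 365/em 450 nm); IC50 versus no-compound fluorescence.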

The test system of the next experiment is VZV strain Ellen. In words: VZV antiviral (ELISA) assay in human foreskin fibroblast cells. Particulars: for inhibition at 10 µg/mL: Human alphaherpesvirus 3, Fibroblast, read-out: % inhibition 10 ug/ml VZV; for IC50: read-out: IC50 (ug/ml) VZV. The experiment is classed as cell-based, varicella-zoster virus. The gist of the method: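 HFF cells infected with VZV Ellen (MOI <0.1) overnight, then plated at 3.5x10^4 cells/well with compound in DMEM + 2% FBS for three days at 37°C, 5% CO2. Viral glycoprotein II quantified by ELISA with β-galactosidase-linked secondary and 4-methylumbelliferyl-galactoside fluorescence (365/450 nm); IC50 versus no-compound fluorescence.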

[2] abbreviates: Human alphaherpesvirus 1, HSV-1 in Vero cells.
The mark [3] stands for this setting: Human alphaherpesvirus 3, VZV strain Ellen in HFF cells.

≈ marks a conversion by molar mass, not a printed value. Read-outs that look alike come from different tables or passages of the source.

As to `COc1cc(OC)c(NC(=S)Nc2ccc(NC(=O)c3ccccc3F)c(C(F)(F)F)c2)cc1Cl` [Example 402, N-{4-[3-(5-Chloro-2,4-dimethoxy-phenyl)-thioureido]-2-trifluoromethyl-phenyl}-2-fluoro-benzamide], the IC50 is 4 µg/mL (≈ 7.58 µM) in experiment [1], above 10 µg/mL in the experiment on HSV-1 (setting [2]) and above 10 µg/mL in the experiment on VZV strain Ellen (setting [3]). Moreover, the inhibition at 10 µg/mL in the experiment with VZV strain Ellen is 13%.

In the case of `CCCCOc1cc(NC(=S)NC(C)c2ccc(C#N)cc2)ccc1NC(=O)c1ccccc1F` (stereo not shown) [Example 1056, N-(2-Butoxy-4-{3-[1-(4-cyano-phenyl)-ethyl]-thioureido}-phenyl)-2-fluoro-benzamide], the figures for the IC50 (in experiment [1]; in the experiment on HSV-1 (setting [2]); with VZV strain Ellen (setting [3])) were 2.5 µg/mL (≈ 5.1 µM), above 10 µg/mL and 0.4 µg/mL (≈ 0.815 µM), respectively.

On to `COc1cc(OC)c(NC(=S)Nc2ccc(NC(=O)c3ccccc3F)cc2C#N)cc1Cl` [Example 381, N-{4-[3-(5-Chloro-2,4-dimethoxy-phenyl)-thioureido]-3-cyano-phenyl}-2-fluoro-benzamide], for which the IC50 (in experiment [1]; in the experiment with HSV-1 (setting [2]); with VZV strain Ellen (setting [3])) was above 10 µg/mL throughout. Besides, the inhibition at 10 µg/mL in the experiment on VZV strain Ellen amounted to 13%.

As for `COc1cc(NC(=S)NC(C)c2ccc(C#N)cc2)c(OC)cc1NC(=O)c1ccccc1F` (stereo not shown) [Example 1024, N-(4-{3-[1-(4-Cyano-phenyl)-ethyl]-thioureido}-2,5-dimethoxy-phenyl)-2-fluoro-benzamide], the IC50 (in experiment [1]; with HSV-1 (setting [2]); with VZV strain Ellen (setting [3])) was above 10 µg/mL throughout.

Regarding `CC(NC(=S)Nc1ccc(NC(=O)c2nccc3ccccc23)c(C#N)c1)c1ccc(F)cc1` (stereo not shown) [Example 1069, Isoquinoline-1-carboxylic acid (2-cyano-4-{3-[1-(4-fluoro-phenyl)-ethyl]-thioureido}-phenyl)-amide], the values for the IC50 (in experiment [1]; in the experiment on HSV-1 (setting [2]); with VZV strain Ellen (setting [3])) were 4 µg/mL (≈ 8.52 µM), above 10 µg/mL and 0.019 µg/mL (≈ 0.0405 µM), respectively.

Take `COc1cc(OC)c(NC(=S)Nc2ccc(NC(=O)c3ccccc3F)c(C#N)c2)cc1Cl` [Example 277, N-{4-[3-(5-Chloro-2,4-dimethoxy-phenyl)-thioureido]-2-cyano-phenyl}-2-fluoro-benzamide]: the IC50 (in experiment [1]; in the experiment on HSV-1 (setting [2]); in the experiment on VZV strain Ellen (setting [3])) was above 10 µg/mL each time. The inhibition at 10 µg/mL in the experiment on VZV strain Ellen came out at 0%.

On to `CC(NC(=S)Nc1ccc(NC(=O)c2ccccc2F)c(N(C)C)c1)c1ccc(F)cc1` (stereo not shown) [Example 1049, N-(2-Dimethylamino-4-{3-[1-(4-fluoro-phenyl)-ethyl]-thioureido}-phenyl)-2-fluoro-benzamide], for which the IC50 in experiment [1] turned out to be 4.5 µg/mL (≈ 9.9 µM); in the experiment on HSV-1 (setting [2]), 8 µg/mL (≈ 17.6 µM); in the experiment on VZV strain Ellen (setting [3]) it was 0.07 µg/mL (≈ 0.154 µM).

Regarding `COc1cc(OC)c(NC(=S)Nc2ccc(NC(=O)c3c(F)cccc3F)cc2C)cc1Cl` [Example 347, N-{4-[3-(5-Chloro-2,4-dimethoxy-phenyl)-thioureido]-3-methyl-phenyl}-2,6-difluoro-benzamide], the IC50 in experiment [1] is 10 µg/mL (≈ 20.3 µM); in the experiment on HSV-1 (setting [2]), 0.06 µg/mL (≈ 0.122 µM); in the experiment with VZV strain Ellen (setting [3]) it was above 10 µg/mL. Besides, in the experiment on VZV strain Ellen, the inhibition at 10 µg/mL was determined as 34%.

As to `CCOc1cc(NC(=S)NC(C)c2ccc(F)cc2)ccc1NC(=O)c1ccccc1F` (stereo not shown) [Example 1060, N-(2-Ethoxy-4-{3-[1-(4-fluoro-phenyl)-ethyl]-thioureido}-phenyl)-2-fluoro-benzamide], the IC50 in experiment [1] was above 10 µg/mL; in the experiment on HSV-1 (setting [2]), above 10 µg/mL; in the experiment on VZV strain Ellen (setting [3]) it was 0.26 µg/mL (≈ 0.571 µM).

On to `CC(NC(=S)Nc1ccc(NC(=O)c2cc3ccccc3cn2)c(C#N)c1)c1ccc(F)cc1` (stereo not shown) [Example 1071, Isoquinoline-3-carboxylic acid (2-cyano-4-{3-[1-(4-fluoro-phenyl)-ethyl]-thioureido}-phenyl)-amide], for which the results for the IC50 (in experiment [1]; with HSV-1 (setting [2]); in the experiment with VZV strain Ellen (setting [3])) were above 10 µg/mL, 9 µg/mL (≈ 19.2 µM) and 0.03 µg/mL (≈ 0.0639 µM), respectively.

In the case of `COc1cc(NC(=S)NC(C)c2ccc(F)cc2)c(C)cc1NC(=O)c1ccccc1F` (stereo not shown) [Example 1031, 2-Fluoro-N-(4-{3-[1-(4-fluoro-phenyl)-ethyl]-thioureido}-2-methoxy-5-methyl-phenyl)-benzamide], the IC50 was above 10 µg/mL in experiment [1], above 10 µg/mL in the experiment with HSV-1 (setting [2]) and 0.7 µg/mL (≈ 1.54 µM) in the experiment on VZV strain Ellen (setting [3]).

`CC(NC(=S)Nc1ccc(NC(=O)c2ccccc2F)c(-c2ccccc2)c1)c1ccc(F)cc1` (stereo not shown) [Example 1065, 2-Fluoro-N-(5-{3-[1-(4-fluoro-phenyl)-ethyl)-thioureido}-biphenyl-2-yl)-benzamide]: the IC50 was 8.1 µg/mL (≈ 16.6 µM) in experiment [1]; 4.9 µg/mL (≈ 10 µM) in the experiment with HSV-1 (Human alphaherpesvirus 1, Vero); 0.33 µg/mL (≈ 0.677 µM) in the experiment with VZV strain Ellen (Human alphaherpesvirus 3, HFF).

Turning to `CC(NC(=S)Nc1cc(Br)c(NC(=O)c2ccccc2F)c(Br)c1)c1ccc(F)cc1` (stereo not shown) [Example 1033, N-(2,6-Dibromo-4-{3-[1-(4-fluoro-phenyl)-ethyl]-thioureido}-phenyl)-2-fluoro-benzamide], the IC50 in experiment [1] was 3.8 µg/mL (≈ 6.68 µM); in the experiment with HSV-1 (setting [2]) it was 7 µg/mL (≈ 12.3 µM); in the experiment on VZV strain Ellen (setting [3]) it was 0.039 µg/mL (≈ 0.0685 µM).

With `COc1cc(NC(=O)c2ccccc2F)ccc1NC(=S)Nc1ccc(C)c(Cl)c1` [Example 419, N-{4-[3-(3-Chloro-4-methyl-phenyl)-thioureido]-3-methoxy-phenyl}-2-fluoro-benzamide], the IC50 in experiment [1] is above 10 µg/mL; with HSV-1 (setting [2]) it was 0.2 µg/mL (≈ 0.451 µM); with VZV strain Ellen (setting [3]), above 10 µg/mL. The inhibition at 10 µg/mL in the experiment with VZV strain Ellen was found to be 3%.

For the compound `COc1cc(C)c(Cl)cc1NC(=S)Nc1ccc(NC(=O)c2ccccc2F)c(C)c1` [Example 394, N-{4-[3-(5-Chloro-2-methoxy-4-methyl-phenyl)-thioureido]-2-methyl-phenyl}-2-fluoro-benzamide], the IC50 in experiment [1] was above 10 µg/mL; in the experiment on HSV-1 (setting [2]), 0.2 µg/mL (≈ 0.437 µM); in the experiment with VZV strain Ellen (setting [3]), above 10 µg/mL. The inhibition at 10 µg/mL in the experiment on VZV strain Ellen was found to be 36%.

`COc1cc(NC(=S)NC(C)c2ccc(F)cc2)ccc1NC(=O)c1ccccc1F` (stereo not shown) [Example 1064, 2-Fluoro-N-(4-{3-[1-(4-fluoro-phenyl)-ethyl]-thioureido}-2-methoxy-phenyl)-benzamide]: the IC50 in experiment [1] is 4.5 µg/mL (≈ 10.2 µM); in the experiment on HSV-1 (setting [2]), 3.9 µg/mL (≈ 8.83 µM); in the experiment with VZV strain Ellen (setting [3]) it was 0.04 µg/mL (≈ 0.0906 µM).

Turning to `COc1cc(OC)c(NC(=S)Nc2ccc(NC(=O)c3ccccc3F)c(OC)c2)cc1Cl` [Example 303, N-{4-[3-(5-Chloro-2,4-dimethoxy-phenyl)-thioureido]-2-methoxy-phenyl}-2-fluoro-benzamide], the IC50 (in experiment [1]; in the experiment on HSV-1 (setting [2]); with VZV strain Ellen (setting [3])) was above 10 µg/mL in each case. Moreover, the inhibition at 10 µg/mL in the experiment on VZV strain Ellen amounted to 15%.

Turning to `CC(NC(=S)Nc1ccc(NC(=O)c2ccccc2F)c(C#N)c1)c1ccc(C#N)cc1` (stereo not shown) [Example 1042, N-(2-Cyano-4-{3-[1-(4-cyano-phenyl)-ethyl]-thioureido}-phenyl)-2-fluoro-benzamide], the IC50 turned out to be 2.1 µg/mL (≈ 4.73 µM) in experiment [1], 4.2 µg/mL (≈ 9.47 µM) in the experiment with HSV-1 (setting [2]) and 0.54 µg/mL (≈ 1.22 µM) with VZV strain Ellen (setting [3]).

In the case of `CC(NC(=S)Nc1ccc(NC(=O)c2ccccc2F)c(OCC#N)c1)c1ccc(F)cc1` (stereo not shown) [Example 1062, 2-Fluoro-N-[4-{3-[1-(4-fluoro-phenyl)-ethyl]-thioureido}-2-(2-nitrilo-ethoxy)-phenyl]-benzamide], the IC50 in experiment [1] is 6 µg/mL (≈ 12.9 µM); in the experiment with HSV-1 (setting [2]) it was above 10 µg/mL; in the experiment with VZV strain Ellen (setting [3]), 0.33 µg/mL (≈ 0.707 µM).
